From PubChem BioAssay AID1850 (Southern Research Specialized Biocontainment Screening …, 2009)

Each compound was assayed on Salmonella Typhi PhoP-promoter GFP reporter, fluorescence, 4 h (assay: PhoP regulon inhibitors, Salmonella typhi PhoP promoter GFP reporter, confirmatory (AID 1850)).

Structure (SMILES)	IC50
CC(C(=O)NC1C=CS(=O)(=O)C1)N1C(=O)/C(=C/c2cccc(Cl)c2)SC1=S (stereo not drawn)	68.6 µM
CN1CCN(CCCN2c3ccccc3Sc3ccc(C(F)(F)F)cc32)CC1	46.4 µM
CCCCOc1ccc(Br)cc1CSC(=N)N	35 µM
CC1CCN(CCCNC(=O)c2ccc3c(=O)n(Cc4ccc(Cl)cc4)c(=S)[nH]c3c2)CC1	44.5 µM
Cc1nonc1C(=O)N/N=C/c1ccc([N+](=O)[O-])o1	37.5 µM
OC(CNCCc1ccc(Cl)cc1)COc1cc(Cl)ccc1Cl (stereo not drawn)	67.9 µM
CN1CCN(Cc2cc(COCc3ccccc3)c3cccnc3c2O)CC1	37.6 µM
CN1CCN(CC(=O)N2CCn3c4c(c5cc(C6CCCCC6)ccc53)CCCC42)CC1 (stereo not drawn)	32 µM
O=C1OCCN1/N=C/c1ccc([N+](=O)[O-])o1	33.1 µM
COc1ccc(CNCC(O)COc2ccc(C(C)(C)c3ccccc3)cc2)cc1 (stereo not drawn)	20.9 µM
Cc1cc(C)c2c(N)c3ccccc3nc2n1	77.3 µM
O=C(Nc1cccc(Cl)c1)Nc1nccs1	40 µM
COc1cccc(-c2nnc(NC(=O)c3ccc(Cl)s3)o2)c1	101 µM
CCCCCCCNC(=O)C1(CC2CC(c3ccc(Cl)cc3)=NO2)CCNCC1 (stereo not drawn)	37.4 µM
CCCCCCCC(=O)N/N=C/c1ccc([N+](=O)[O-])o1	26.7 µM
C[N+]12CN3CN(CN(C3)C1)C2	86.3 µM
O=C(Nc1nnc(-c2cccs2)o1)c1cccc(Oc2ccccc2)c1	61.1 µM
O=S(=O)(Nc1c(S(=O)(=O)c2ccccc2)c2nc3ccccc3nc2n1C1CCCCC1)c1ccccc1	5.01 µM
OC1CCCN(Cc2ccc3ccc4cccc5ccc2c3c45)C1 (stereo not drawn)	79.3 µM
CCCCCCCCNc1ncnc2ccccc12	18.7 µM

Structure (SMILES)	IC50
CC(=O)NC(c1ccc2ccccc2c1)c1ccc2cccnc2c1O (stereo not drawn)	106 µM
CCOC(=O)C1=C(c2ccccc2)NC(N)=NC1c1ccc(OCc2ccc(C(=O)OC)cc2)cc1 (stereo not drawn)	34.4 µM
O=C(Nc1nnc(-c2cccs2)o1)c1cccc(C(F)(F)F)c1	22.9 µM
Fc1ccc(Nc2c3c(nc4ccccc24)CCC3)cc1	35.1 µM
COC(=O)c1sccc1NC(=S)NCc1ccc(Cl)cc1	36.9 µM
Oc1[nH]c2ccc(Br)cc2c1N=NC(=S)N1CCOCC1	36.6 µM
Oc1ccc(/C=N/Nc2nccnc2Cl)c(O)c1	70.4 µM
CCCCC(=O)NNC(=S)NC(=O)CCC	97.4 µM
CN(C)CC/C=C1/c2ccccc2Sc2ccc(Cl)cc21	49.1 µM
O=C1c2ccccc2C2=Nc3ccccc3SC(c3ccccc3F)C12 (stereo not drawn)	3.8 µM
COC12C(COC(N)=O)C3=C(C(=O)C(C)=C(N)C3=O)N1CC1C2N1C (stereo not drawn)	8.18 µM
CC(C)Oc1ccc(Cc2cnc(N)nc2N)cc1	67.5 µM
CN1CCc2nc(SCC(=O)Nc3cccc(F)c3)c(C#N)c(-c3cccs3)c2C1	86.2 µM
O=[N+]([O-])/C=C/c1cc2ccccc2[nH]1	95 µM
O=C(CCc1ccccc1)NNC(=S)NC(=O)c1ccccc1	118 µM
CCS(=O)(=O)c1ccc2oc(=O)c(/C=C(\O)c3ccc(Cl)cc3)nc2c1	76.1 µM
CCCCCCCCC1=NCCc2c1[nH]c1ccccc21	63.1 µM
CCN1CCN(CCNC(=O)c2ccc3c(c2)N(Cc2ccc(F)cc2)C(=O)/C(=C/c2ccccc2)S3)CC1	44.8 µM
O=C(CSc1nnc(-c2ccccc2)n1-c1ccc(Cl)cc1)NC1CCS(=O)(=O)C1 (stereo not drawn)	73.8 µM
Cc1cc(OCC(O)CNC(C)c2ccccc2)ccc1C(C)C (stereo not drawn)	38.1 µM

Structure (SMILES)	IC50
CC(=O)OC1=C(O)C(=O)c2ccccc2C1=O	142 µM
CC1(C)CC(=O)c2c(nc3ccccc3c2N)C1	71.6 µM
CN(C)CCOCCOc1ccc(Cl)c2ccccc12	103 µM
O=c1cc(-c2ccccc2)cc(-c2ccccc2)n1O	19.2 µM
CC1CC(=O)c2c(cc3c(-c4c(O)cc(O)c5c(O)c6c(cc45)OC(C)CC6=O)c(O)cc(O)c3c2O)O1 (stereo not drawn)	27.3 µM
COc1cc(CNC2CCCC2)cc(Cl)c1OCc1ccccc1Cl	71.2 µM
CCCCCSc1cc(OC)c(CCNC)cc1OC	89 µM
O=C(NC(=S)NNC(=O)c1cnccn1)c1ccc(F)cc1	36.1 µM
Oc1[nH]c2ccccc2c1N=NC(=S)N1CCOCC1	35.7 µM
Cc1ccc2c(c1)C1CN(C)CCC1N2Sc1ccccc1[N+](=O)[O-] (stereo not drawn)	43.7 µM
O=S1(=O)Nc2c(ccc3cccnc23)-c2ccccc21	2.17 µM
CCCN(CCC)CCNC(=O)C1CCN(Cc2nc(-c3ccc(Cl)cc3)oc2C)CC1	148 µM
O=Nc1ccc(O)c2ncccc12	17.8 µM
Fc1ccc(Nc2ccnc(Nc3ccc(F)cc3)n2)cc1	20 µM
O=C(NC(=S)NNC(=O)c1ccco1)c1ccc(Br)cc1	88.4 µM
NC1CCN(c2nc3c(cc2F)c(=O)c(C(=O)O)cn3-c2ccc(F)cc2F)C1 (stereo not drawn)	< 0.23 µM
CN1/C(=C\C=C\C2=[N+](C)c3ccc4ccccc4c3C2(C)C)C(C)(C)c2ccccc21	5.78 µM
CCCCOc1ccc(NC2=NC3(CCCC3)N=C(N)N2)cc1	20.8 µM
